Reference: patent US8916551B2, “Heterocyclic compound and use thereof” (Takeda Pharmaceutical Company Limited, priority 2010, dated 2014)

Molecular target: T1, AMPA receptor (human GluR1 flip/stargazin expressed in CHO-K1 cells) (Homo sapiens, UniProt P42261)
T1 construct: expressed in transfected cells; host or cells: CHO-K1
Assay: AMPA receptor function enhancing activity using calcium influx as index
Type: cell-based
Conditions: 100% = 3 mM glutamic acid + 300 μM cyclothiazide, 0% = 3 mM glutamic acid only
Text: Human GluR1 flip cDNA was amplified by PCR using forward primer […] (SEQ ID NO: 1) and reverse primer […] (SEQ ID NO: 2) artificially synthesized using human brain-derived cDNA (BD Bio science) as a template. The amplified product was digested with restriction enzymes EcoRI, NotI (TAKARA SHUZO CO. LTD.), and incorporated into the same site of pcDNA3.1(+) (Invitrogen) to construct pcDNA3.1(+)/human GluR1 flip gene. Human stargazin cDNA was amplified by PCR using forward primer […] (SEQ ID NO: 3) and reverse primer […] (SEQ ID NO: 4) artificially synthesized using human hippocampus cDNA as a template. The amplified product was digested with restriction enzymes XhoI, BamHI (TAKARA SHUZO CO. LTD.), and incorporated into the same site of pcDNA3.1(−) (Invitrogen) to construct pcDNA3.1 Zeo(−)/human stargazin gene.
CHO-K1 cells passaged in a culture medium (Ham's F12 medium (Invitrogen) added with 10% inactivated fetal bovine serum (Morgate) and penicillin, streptomycin (Invitrogen)) were detached with 0.05% trypsin, 0.53 mM EDTA (Invitrogen) diluted with D-PBS(−). The detached cells were suspended in a culture medium, and recovered by a centrifugation operation at 1,000 rpm. The recovered cells were suspended again in D-PBS(−), and added to a 0.4 cm electroporation cuvette (BioRad). pcDNA3.1(+)/human GluR1 flip gene (5 μg) and pcDNA3.1 Zeo(−)/human stargazin gene (15 μg) were added, and the mixture was introduced into CHO-K1 cells using Gene Pulser II (BioRad) under the conditions of 950 μFd, […]. The introduced cells were cultured overnight in a culture medium and, the next day, plated in a 96 well plate at 250 cells/well using a selection medium (culture medium added with Zeocin (Invitrogen) to 250 μg/mL). Clones showing drug resistance were selected, and GluR1 flip/stargazin expressing clones were selected by an assay method using calcium influx as an index as shown below.
CHO-K1/GluR1 flip/stargazin expressing cells were plated on a 96 well black transparent bottom plate (Costar) at 2×10^4 cells/well, and cultured in a 37° C., CO2 incubator (SANYO Electric Co., Ltd.) for 2 days. The medium in the cell plate was removed, and assay buffer A (D-MEM (Invitrogen), 0.1% BSA (Serogical Protein), 20 mM HEPES (Invitrogen)) was added at 50 μL/well. A calcium indicator (Calcium 4 Assay Kit, Invitrogen) added with 2.5 mM probenecid (Invitrogen) was added at 50 μL/well and the well was left standing in 37° C., CO2 incubator for 1 hr. The cell plate was set in CellLux (PerkinElmer), a mixture (50 μL) of 9 mM glutamic acid diluted with assay buffer B (HBSS (Invitrogen), 0.1% BSA, 20 mM HEPES) (final concentration 3 mM) and a test compound (test compound concentration 30 μM) was added, and the amount of change in fluorescence level in 3 min was measured. In the definition here, the amount of change in fluorescence level of well added with glutamic acid at final concentration 3 mM and 300 μM cyclothiazide (TOCRIS) is 100%, the amount of change in fluorescence level of well added only with glutamic acid at final concentration 3 mM is 0%, and the compound activity was calculated according to the following formula. activity(%)=(X−C)/(T−C)×100 T: amount of change in fluorescence level of well added with glutamic acid at final concentration 3 mM and 300 μM cyclothiazide C: amount of change in fluorescence level of well added only with glutamic acid at final concentration 3 mM X: amount of change in fluorescence level of well added with test compound

[1] = test compound 30 μM with glutamic acid final 3 mM, change in fluorescence in 3 min
[2] = test compound 30 μM with 3 mM glutamic acid, change in fluorescence level in 3 min

T1 sequence (P42261 19-906 isoform P42261-2 limits assumed): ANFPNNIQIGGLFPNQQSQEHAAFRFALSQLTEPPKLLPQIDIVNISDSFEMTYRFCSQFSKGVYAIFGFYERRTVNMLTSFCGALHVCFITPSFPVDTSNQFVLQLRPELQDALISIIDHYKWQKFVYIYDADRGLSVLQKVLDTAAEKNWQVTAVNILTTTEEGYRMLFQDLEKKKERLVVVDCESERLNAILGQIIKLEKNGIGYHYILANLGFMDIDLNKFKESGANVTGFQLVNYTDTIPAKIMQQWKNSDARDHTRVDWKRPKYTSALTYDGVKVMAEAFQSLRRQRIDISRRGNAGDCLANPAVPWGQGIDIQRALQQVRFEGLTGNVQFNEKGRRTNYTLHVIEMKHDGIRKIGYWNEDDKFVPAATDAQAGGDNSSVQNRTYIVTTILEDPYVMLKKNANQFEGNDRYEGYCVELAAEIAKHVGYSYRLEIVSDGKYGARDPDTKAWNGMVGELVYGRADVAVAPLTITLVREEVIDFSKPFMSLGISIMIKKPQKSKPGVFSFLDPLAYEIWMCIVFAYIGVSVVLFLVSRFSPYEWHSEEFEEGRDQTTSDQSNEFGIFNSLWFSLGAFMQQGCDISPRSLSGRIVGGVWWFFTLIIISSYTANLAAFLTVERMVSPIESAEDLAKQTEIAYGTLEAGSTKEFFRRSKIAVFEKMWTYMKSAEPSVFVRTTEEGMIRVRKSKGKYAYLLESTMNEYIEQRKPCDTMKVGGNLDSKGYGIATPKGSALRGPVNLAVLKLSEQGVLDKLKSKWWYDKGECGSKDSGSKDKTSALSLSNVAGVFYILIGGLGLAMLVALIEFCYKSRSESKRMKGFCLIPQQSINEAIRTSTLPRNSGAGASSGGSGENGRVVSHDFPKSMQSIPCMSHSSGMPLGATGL
T1 sequence (Q9Y698 whole entry partner): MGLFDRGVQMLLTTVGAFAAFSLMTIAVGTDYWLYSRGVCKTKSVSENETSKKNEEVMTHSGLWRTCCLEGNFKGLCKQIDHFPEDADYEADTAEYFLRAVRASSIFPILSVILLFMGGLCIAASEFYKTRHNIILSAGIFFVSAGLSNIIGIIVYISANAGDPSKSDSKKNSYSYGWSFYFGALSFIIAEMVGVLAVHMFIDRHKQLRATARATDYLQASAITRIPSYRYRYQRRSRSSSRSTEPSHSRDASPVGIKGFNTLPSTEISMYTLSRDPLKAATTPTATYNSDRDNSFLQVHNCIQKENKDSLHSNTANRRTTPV

| Structure (SMILES) | activity (%) [1] [%] | activity (%) [2] [%] |
| --- | --- | --- |
| Cc1cc(Oc2ccc(C3CCCN4CCS(=O)(=O)N=C34)cc2)ccc1F (stereo not drawn) [Example 112, 9-[4-(4-fluoro-3-methylphenoxy)phenyl]-3,4,6,7,8,9-hexahydropyrido[2,1-c][1,2,4]thiadiazine 2,2-dioxide] | 79 | – |
| CCc1cccc(Oc2ccc(C3CCCN4CCS(=O)(=O)N=C34)cc2)c1 (stereo not drawn) [Example 132, 9-[4-(3-ethylphenoxy)phenyl]-3,4,6,7,8,9-hexahydropyrido[2,1-c][1,2,4]thiadiazine 2,2-dioxide] | 75 | – |
| Cc1ccccc1Oc1ccc(C2CCCN3CCS(=O)(=O)N=C23)cc1 (stereo not drawn) [Example 116, 9-[4-(2-methylphenoxy)phenyl]-3,4,6,7,8,9-hexahydropyrido[2,1-c][1,2,4]thiadiazine 2,2-dioxide] | 69 | – |
| O=S1(=O)CCN2CCCC(c3ccc(C(F)(F)F)cc3)C2=N1 (stereo not drawn) [Example 177, 9-[4-(trifluoromethyl)phenyl]-3,4,6,7,8,9-hexahydropyrido[2,1-c][1,2,4]thiadiazine 2,2-dioxide] | – | 69 |
| COc1cc(Oc2ccc(C3CC(C)CN4CCS(=O)(=O)N=C34)cc2)ccc1F (stereo not drawn) [Example 164, 9-[4-(4-fluoro-3-methoxyphenoxy)phenyl]-7-methyl-3,4,6,7,8,9-hexahydropyrido[2,1-c][1,2,4]thiadiazine 2,2-dioxide] | – | 69 |
| Cc1ccc(Oc2ccc(C3CCCN4CCS(=O)(=O)N=C34)cc2)cc1C (stereo not drawn) [Example 135, 9-[4-(3,4-dimethylphenoxy)phenyl]-3,4,6,7,8,9-hexahydropyrido[2,1-c][1,2,4]thiadiazine 2,2-dioxide] | 59 | – |
| CCCCOc1ccc(C2CCCN3CCS(=O)(=O)N=C23)cc1F (stereo not drawn) [Example 352, 9-(4-butoxy-3-fluorophenyl)-3,4,6,7,8,9-hexahydropyrido[2,1-c][1,2,4]thiadiazine 2,2-dioxide] | 76 | – |
| O=S1(=O)CCN2CCNC(c3ccc(Oc4ccccc4)cc3)C2=N1 (stereo not drawn) [Example 211, 9-(4-phenoxyphenyl)-3,4,6,7,8,9-hexahydropyrazino[2,1-c][1,2,4]thiadiazine 2,2-dioxide] | – | 71 |
| O=S1(=O)CCN2CCCC(c3ccc(OC(F)(F)F)cc3)C2=N1 (stereo not drawn) [Example 179, 9-[4-(trifluoromethoxy)phenyl]-3,4,6,7,8,9-hexahydropyrido[2,1-c][1,2,4]thiadiazine 2,2-dioxide] | – | 69 |
| O=S1(=O)CCN2C=CC=C(c3ccc(Oc4cccc(C(F)(F)F)c4)cc3)C2=N1 [Example 187, 9-{4-[3-(trifluoromethyl)phenoxy]phenyl}-3,4-dihydropyrido[2,1-c][1,2,4]thiadiazine 2,2-dioxide] | – | 72 |
| CC(C)c1ccc(/C=C/C2=CC=CN3CCS(=O)(=O)N=C23)cc1 [Example 51, 9-{(E)-2-[4-(1-methylethyl)phenyl]ethenyl}-3,4-dihydropyrido[2,1-c][1,2,4]thiadiazine 2,2-dioxide] | 87 | – |
| O=S1(=O)CCN2C=CC=C(C3CCC(c4ccccc4)CC3)C2=N1 (stereo not drawn) [Example 185, 9-(4-phenylcyclohexyl)-3,4-dihydropyrido[2,1-c][1,2,4]thiadiazine 2,2-dioxide] | – | 36 |
| Cc1cc(C2CCCN3CCS(=O)(=O)N=C23)ccc1-c1ccccc1 (stereo not drawn) [Example 103, 9-(2-methylbiphenyl-4-yl)-3,4,6,7,8,9-hexahydropyrido[2,1-c][1,2,4]thiadiazine 2,2-dioxide] | 81 | – |
| Cc1ccc(Oc2ccc(C3CCCN4CCS(=O)(=O)N=C34)cc2)cc1 (stereo not drawn) [Example 109, 9-[4-(4-methylphenoxy)phenyl]-3,4,6,7,8,9-hexahydropyrido[2,1-c][1,2,4]thiadiazine 2,2-dioxide] | 88 | – |
| CCc1cccc(Oc2ccc(C3=CC=CN4CCS(=O)(=O)N=C34)cc2)c1 [Example 130, 9-[4-(3-ethylphenoxy)phenyl]-3,4-dihydropyrido[2,1-c][1,2,4]thiadiazine 2,2-dioxide] | 69 | – |
| CCc1cccc(Oc2ccc(C3CCCN4CCS(=O)(=O)N=C34)cc2)c1 (stereo not drawn) [Example 131, 9-[4-(3-ethylphenoxy)phenyl]-3,4,6,7,8,9-hexahydropyrido[2,1-c][1,2,4]thiadiazine 2,2-dioxide] | 58 | – |

More lines, now with the values ahead:

| activity (%) [1] [%] | activity (%) [2] [%] | Structure (SMILES) |
| --- | --- | --- |
| 99 | – | CC(C)(c1ccccc1)c1ccc(C2=CC=CN3CCS(=O)(=O)N=C23)cc1 [Example 325, 9-[4-(1-methyl-1-phenylethyl)phenyl]-3,4-dihydropyrido[2,1-c][1,2,4]thiadiazine 2,2-dioxide] |
| – | 86 | O=S1(=O)CCN2C=C(Cl)C=C(c3ccc(Oc4ccc(C(F)(F)F)nc4)cc3)C2=N1 [Example 256, 7-chloro-9-(4-{[6-(trifluoromethyl)pyridin-3-yl]oxy}phenyl)-3,4-dihydropyrido[2,1-c][1,2,4]thiadiazine 2,2-dioxide] |
| 64 | – | O=S1(=O)CCN2CCCC(c3ccc4c(ccn4CCc4ccc(F)cc4)c3)C2=N1 (stereo not drawn) [Example 295, 9-{1-[2-(4-fluorophenyl)ethyl]-1H-indol-5-yl}-3,4,6,7,8,9-hexahydropyrido[2,1-c][1,2,4]thiadiazine 2,2-dioxide] |
| 77 | – | O=S1(=O)CCN2CCCC(c3ccc(Oc4ccc(F)cc4)cc3)C2=N1 (stereo not drawn) [Example 357, 9-[4-(4-fluorophenoxy)phenyl]-3,4,6,7,8,9-hexahydropyrido[2,1-c][1,2,4]thiadiazine 2,2-dioxide] |
| 55 | – | O=S1(=O)CCN2CCCC(c3ccc(Oc4ccccc4Cl)cc3)C2=N1 (stereo not drawn) [Example 433, 9-[4-(2-chlorophenoxy)phenyl]-3,4,6,7,8,9-hexahydropyrido[2,1-c][1,2,4]thiadiazine 2,2-dioxide] |
| – | 67 | Cc1cc(Cl)ccc1Oc1ccc([C@@H]2CCCN3CCS(=O)(=O)N=C23)cc1 [Example 215, (9S)-9-[4-(4-chloro-2-methylphenoxy)phenyl]-3,4,6,7,8,9-hexahydropyrido[2,1-c][1,2,4]thiadiazine 2,2-dioxide] |
| – | 91 | O=S1(=O)CCN2C=C(Cl)C=C(c3ccc(Oc4cncc(C(F)(F)F)c4)cc3)C2=N1 [Example 260, 7-chloro-9-(4-{[5-(trifluoromethyl)pyridin-3-yl]oxy}phenyl)-3,4-dihydropyrido[2,1-c][1,2,4]thiadiazine 2,2-dioxide] |
| – | 90 | O=S1(=O)CCN2C=CC=C(c3ccc(Oc4cncc(C(F)(F)F)c4)cc3)C2=N1 [Example 259, 9-(4-{[5-(trifluoromethyl)pyridin-3-yl]oxy}phenyl)-3,4-dihydropyrido[2,1-c][1,2,4]thiadiazine 2,2-dioxide] |
| – | 72 | O=S1(=O)CCN2CCCC(c3ccc(OC4CCCCC4)cc3)C2=N1 (stereo not drawn) [Example 261, 9-[4-(cyclohexyloxy)phenyl]-3,4,6,7,8,9-hexahydropyrido[2,1-c][1,2,4]thiadiazine 2,2-dioxide] |
| 85 | – | CC(F)(F)c1ccc(Oc2ccc(C3=CC=CN4CCS(=O)(=O)N=C34)cc2)cc1 [Example 323, 9-{4-[4-(1,1-difluoroethyl)phenoxy]phenyl}-3,4-dihydropyrido[2,1-c][1,2,4]thiadiazine 2,2-dioxide] |
| 80 | – | CC(C)Cn1ccc2cc(C3=CC=CN4CCS(=O)(=O)N=C34)ccc21 [Example 293, 9-[1-(2-methylpropyl)-1H-indol-5-yl]-3,4-dihydropyrido[2,1-c][1,2,4]thiadiazine 2,2-dioxide] |
